Assay results published in patent US4345938A, “Herbicidal 2-haloacetanilides” (Monsanto Company, priority 1980, dated 1982).

Key:
Assay type in all cases: in vivo
Barnyardgrass = assay: Pre-emergent herbicidal test, Barnyardgrass; note: ranges in brackets are in %
Source text: (§1) A good grade of top soil is placed in aluminum pans and compacted to a depth of three-eights to one-half inch from the top of the pan. On the top of the soil is placed a number of seeds or vegetative propagules of various plant species. The soil required to level fill the pans after seeding or adding vegetative propagules is weighted into a pan. The soil and a known amount of the active ingredient applied in a solvent or as a wettable powder suspension are thoroughly mixed, and used to cover the prepared pans. After treatment, the pans are moved into a greenhouse bench where they are watered by subirrigation as needed to give adequate moisture for germination and growth.
(§2) Approximately 2 weeks after seeding and treating, the plants were observed and the results recorded. The herbicidal rating was obtained by means of a fixed scale based on the percent injury of each plant species. The ratings are defined as follows: […]

Johnsongrass = assay: Pre-emergent herbicidal test, Johnsongrass; conditions: Table I; note: ranges in brackets are in %
Source text: as §1, §2

Wheat = assay: Pre-emergent herbicidal test, Wheat; conditions: Table II; note: ranges in brackets are in %
Source text: as §1, §2
(§3) The compounds were further tested by utilizing the above procedure on the following plant species: […]

Quackgrass = assay: Pre-emergent herbicidal test, Quackgrass; conditions: Table I; note: ranges in brackets are in %
Source text: as §1, §2

Upland seeded rice = Upland seeded rice greenhouse test, rice safety; conditions: in vivo
Description: In another comparative test in the greenhouse, the compound of Example 2 and Compound B were tested in Upland seeded rice. […] In contrast, Compound A, (a commercial rice herbicide), required 0.14 kg/ha (0.125 lb/A) to selectively control the same weed with rice safety also maintained at 1.12 kg/ha resulting in a selectivity factor of at least 8, i.e., less than one-half that of the compound of Example 2.

Hemp Sesbania = assay: Pre-emergent herbicidal test, Hemp Sesbania; conditions: Table II; note: ranges in brackets are in %
Source text: as §1, §2, §3

Morningglory = assay: Pre-emergent herbicidal test, Morningglory; note: ranges in brackets are in %
Source text: as §1, §2

Yellow Nutsedge = assay: Pre-emergent herbicidal test, Yellow Nutsedge; conditions: Table I; note: ranges in brackets are in %
Source text: as §1, §2

Downy Brome = assay: Pre-emergent herbicidal test, Downy Brome; note: ranges in brackets are in %
Source text: as §1, §2

Smartweed = assay: Pre-emergent herbicidal test, Smartweed; note: ranges in brackets are in %
Source text: as §1, §2

Soybean = assay: Pre-emergent herbicidal test, Soybean; conditions: Table II; note: ranges in brackets are in %
Source text: as §1, §2, §3

Cocklebur = assay: Pre-emergent herbicidal test, Cocklebur; note: ranges in brackets are in %
Source text: as §1, §2

Panicum Spp. = assay: Pre-emergent herbicidal test, Panicum Spp.; note: ranges in brackets are in %; conditions: Table II
Source text: as §1, §2, §3

Lambsquarters = assay: Pre-emergent herbicidal test, Lambsquarters; note: ranges in brackets are in %
Source text: as §1, §2

Sugarbeet = assay: Pre-emergent herbicidal test, Sugarbeet; conditions: Table II; note: ranges in brackets are in %
Source text: as §1, §2, §3

Rice = assay: Pre-emergent herbicidal test, Rice; conditions: Table II; note: ranges in brackets are in %
Source text: as §1, §2, §3

Velvetleaf = assay: Pre-emergent herbicidal test, Velvetleaf; note: ranges in brackets are in %
Source text: as §1, §2

Sorghum = assay: Pre-emergent herbicidal test, Sorghum; conditions: Table II; note: ranges in brackets are in %
Source text: as §1, §2, §3

Wild Buckwheat = assay: Pre-emergent herbicidal test, Wild Buckwheat; conditions: Table II; note: ranges in brackets are in %
Source text: as §1, §2, §3

CCCCOc1cccc(CC)c1N(CC)C(=O)CCl [Example 2, N-ethyl-2'-n-butoxy-6'-ethyl-2-chloroacetanilide]
Rating, Barnyardgrass (Barnyardgrass; Table I, 5.6 kg/h): 3 (75-100)
Rating, Barnyardgrass (Barnyardgrass; Table I, 11.2 kg/h): 3 (75-100)
Rating, Barnyardgrass (Barnyardgrass; Table II, 0.01 kg/h): 1 (25-49)
Rating, Barnyardgrass (Barnyardgrass; Table II, 0.06 kg/h): 3 (75-100)
Rating, Barnyardgrass (Barnyardgrass; Table II, 0.28 kg/h): 3 (75-100)
Rating, Barnyardgrass (Barnyardgrass; Table II, 1.12 kg/h): 3 (75-100)
Rating, Barnyardgrass (Barnyardgrass; Table II, 5.6 kg/h): 3 (75-100)
Rating, Johnsongrass (Johnsongrass; 5.6 kg/h): 2 (50-74)
Rating, Johnsongrass (Johnsongrass; 11.2 kg/h): 3 (75-100)
Rating, Wheat (Wheat; 0.01 kg/h): 0 (0-24)
Rating, Wheat (Wheat; 0.06 kg/h): 0 (0-24)
Rating, Wheat (Wheat; 0.28 kg/h): 1 (25-49)
Rating, Wheat (Wheat; 1.12 kg/h): 2 (50-74)
Rating, Wheat (Wheat; 5.6 kg/h): 3 (75-100)
Rating, Quackgrass (Quackgrass; 5.6 kg/h): 3 (75-100)
Rating, Quackgrass (Quackgrass; 11.2 kg/h): 3 (75-100)
rate at which rice safety is maintained (Upland seeded rice): ≥ 1.12 kg/ha
Rating, Hemp Sesbania (Hemp Sesbania; 0.01 kg/h): 0 (0-24)
Rating, Hemp Sesbania (Hemp Sesbania; 0.06 kg/h): 0 (0-24)
Rating, Hemp Sesbania (Hemp Sesbania; 0.28 kg/h): 0 (0-24)
Rating, Hemp Sesbania (Hemp Sesbania; 1.12 kg/h): 2 (50-74)
Rating, Hemp Sesbania (Hemp Sesbania; 5.6 kg/h): 2 (50-74)
Rating, Morningglory (Morningglory; Table I, 5.6 kg/h): 0 (0-24)
Rating, Morningglory (Morningglory; Table I, 11.2 kg/h): 2 (50-74)
Rating, Morningglory (Morningglory; Table II, 0.01 kg/h): 0 (0-24)
Rating, Morningglory (Morningglory; Table II, 0.06 kg/h): 0 (0-24)
Rating, Morningglory (Morningglory; Table II, 0.28 kg/h): 0 (0-24)
Rating, Morningglory (Morningglory; Table II, 1.12 kg/h): 0 (0-24)
Rating, Morningglory (Morningglory; Table II, 5.6 kg/h): 1 (25-49)
Rating, Yellow Nutsedge (Yellow Nutsedge; 5.6 kg/h): 3 (75-100)
Rating, Yellow Nutsedge (Yellow Nutsedge; 11.2 kg/h): 3 (75-100)
Rating, Downy Brome (Downy Brome; Table I, 5.6 kg/h): 3 (75-100)
Rating, Downy Brome (Downy Brome; Table I, 11.2 kg/h): 3 (75-100)
Rating, Downy Brome (Downy Brome; Table II, 0.01 kg/h): 0 (0-24)
Rating, Downy Brome (Downy Brome; Table II, 0.06 kg/h): 1 (25-49)
Rating, Downy Brome (Downy Brome; Table II, 0.28 kg/h): 3 (75-100)
Rating, Downy Brome (Downy Brome; Table II, 1.12 kg/h): 3 (75-100)
Rating, Downy Brome (Downy Brome; Table II, 5.6 kg/h): 3 (75-100)
Rating, Smartweed (Smartweed; Table I, 5.6 kg/h): 3 (75-100)
Rating, Smartweed (Smartweed; Table I, 11.2 kg/h): 3 (75-100)
Rating, Smartweed (Smartweed; Table II, 0.01 kg/h): 0 (0-24)
Rating, Smartweed (Smartweed; Table II, 0.06 kg/h): 0 (0-24)
Rating, Smartweed (Smartweed; Table II, 0.28 kg/h): 0 (0-24)
Rating, Smartweed (Smartweed; Table II, 1.12 kg/h): 2 (50-74)
Rating, Smartweed (Smartweed; Table II, 5.6 kg/h): 3 (75-100)
Rating, Soybean (Soybean; 0.01 kg/h): 0 (0-24)
Rating, Soybean (Soybean; 0.06 kg/h): 0 (0-24)
Rating, Soybean (Soybean; 0.28 kg/h): 0 (0-24)
Rating, Soybean (Soybean; 1.12 kg/h): 0 (0-24)
Rating, Soybean (Soybean; 5.6 kg/h): 1 (25-49)
Rating, Cocklebur (Cocklebur; Table I, 5.6 kg/h): 0 (0-24)
Rating, Cocklebur (Cocklebur; Table I, 11.2 kg/h): 0 (0-24)
Rating, Cocklebur (Cocklebur; Table II, 0.01 kg/h): 0 (0-24)
Rating, Cocklebur (Cocklebur; Table II, 0.06 kg/h): 0 (0-24)
Rating, Cocklebur (Cocklebur; Table II, 0.28 kg/h): 0 (0-24)
Rating, Cocklebur (Cocklebur; Table II, 1.12 kg/h): 0 (0-24)
Rating, Cocklebur (Cocklebur; Table II, 5.6 kg/h): 1 (25-49)
Rating, Panicum Spp. (Panicum Spp.; 0.01 kg/h): 0 (0-24)
Rating, Panicum Spp. (Panicum Spp.; 0.06 kg/h): 1 (25-49)
Rating, Panicum Spp. (Panicum Spp.; 0.28 kg/h): 3 (75-100)
Rating, Panicum Spp. (Panicum Spp.; 1.12 kg/h): 3 (75-100)
Rating, Panicum Spp. (Panicum Spp.; 5.6 kg/h): 3 (75-100)
Rating, Lambsquarters (Lambsquarters; Table I, 5.6 kg/h): 3 (75-100)
Rating, Lambsquarters (Lambsquarters; Table I, 11.2 kg/h): 3 (75-100)
Rating, Lambsquarters (Lambsquarters; Table II, 0.01 kg/h): 0 (0-24)
Rating, Lambsquarters (Lambsquarters; Table II, 0.06 kg/h): 0 (0-24)
Rating, Lambsquarters (Lambsquarters; Table II, 0.28 kg/h): 0 (0-24)
Rating, Lambsquarters (Lambsquarters; Table II, 1.12 kg/h): 2 (50-74)
Rating, Lambsquarters (Lambsquarters; Table II, 5.6 kg/h): 3 (75-100)
Rating, Sugarbeet (Sugarbeet; 0.01 kg/h): 0 (0-24)
Rating, Sugarbeet (Sugarbeet; 0.06 kg/h): 0 (0-24)
Rating, Sugarbeet (Sugarbeet; 0.28 kg/h): 1 (25-49)
Rating, Sugarbeet (Sugarbeet; 1.12 kg/h): 2 (50-74)
Rating, Sugarbeet (Sugarbeet; 5.6 kg/h): 2 (50-74)
Rating, Rice (Rice; 0.01 kg/h): 0 (0-24)
Rating, Rice (Rice; 0.06 kg/h): 0 (0-24)
Rating, Rice (Rice; 0.28 kg/h): 1 (25-49)
Rating, Rice (Rice; 1.12 kg/h): 3 (75-100)
Rating, Rice (Rice; 5.6 kg/h): 3 (75-100)
Rating, Velvetleaf (Velvetleaf; Table I, 5.6 kg/h): 0 (0-24)
Rating, Velvetleaf (Velvetleaf; Table I, 11.2 kg/h): 1 (25-49)
Rating, Velvetleaf (Velvetleaf; Table II, 0.01 kg/h): 0 (0-24)
Rating, Velvetleaf (Velvetleaf; Table II, 0.06 kg/h): 0 (0-24)
Rating, Velvetleaf (Velvetleaf; Table II, 0.28 kg/h): 0 (0-24)
Rating, Velvetleaf (Velvetleaf; Table II, 1.12 kg/h): 0 (0-24)
Rating, Velvetleaf (Velvetleaf; Table II, 5.6 kg/h): 1 (25-49)
Rating, Sorghum (Sorghum; 0.01 kg/h): 0 (0-24)
Rating, Sorghum (Sorghum; 0.06 kg/h): 0 (0-24)
Rating, Sorghum (Sorghum; 0.28 kg/h): 1 (25-49)
Rating, Sorghum (Sorghum; 1.12 kg/h): 3 (75-100)
Rating, Sorghum (Sorghum; 5.6 kg/h): 3 (75-100)
Rating, Wild Buckwheat (Wild Buckwheat; 0.01 kg/h): 0 (0-24)
Rating, Wild Buckwheat (Wild Buckwheat; 0.06 kg/h): 0 (0-24)
Rating, Wild Buckwheat (Wild Buckwheat; 0.28 kg/h): 0 (0-24)
Rating, Wild Buckwheat (Wild Buckwheat; 1.12 kg/h): 1 (25-49)
Rating, Wild Buckwheat (Wild Buckwheat; 5.6 kg/h): 2 (50-74)
